Measured values taken from patent US12686846B2, “Plant sweet and yeast MSF transporter capable of transporting different sugars simultaneously” (THE BOARD OF TRUSTEES OF THE UNIVERSITY OF ILLINOIS, priority 2020, dated 2026).

What was measured:
[1] = biological target: T1, Lipomyces starkeyi LST1_205437 transporter, wild type, SEQ ID NO: 4 (Lipomyces starkeyi, UniProt A0A1E3QE37); experiment: C14 labeled sugar uptake assay (zero-trans influx), SR8D8 expressing LST1_205437; type: cell-based; settings: initial glucose uptake (5 s), 30° C., pH 6.5; cell wet weight; ± SEM
T1 construct: whole-cell 14C sugar uptake
T1 sequence (A0A1E3QE37 1-603): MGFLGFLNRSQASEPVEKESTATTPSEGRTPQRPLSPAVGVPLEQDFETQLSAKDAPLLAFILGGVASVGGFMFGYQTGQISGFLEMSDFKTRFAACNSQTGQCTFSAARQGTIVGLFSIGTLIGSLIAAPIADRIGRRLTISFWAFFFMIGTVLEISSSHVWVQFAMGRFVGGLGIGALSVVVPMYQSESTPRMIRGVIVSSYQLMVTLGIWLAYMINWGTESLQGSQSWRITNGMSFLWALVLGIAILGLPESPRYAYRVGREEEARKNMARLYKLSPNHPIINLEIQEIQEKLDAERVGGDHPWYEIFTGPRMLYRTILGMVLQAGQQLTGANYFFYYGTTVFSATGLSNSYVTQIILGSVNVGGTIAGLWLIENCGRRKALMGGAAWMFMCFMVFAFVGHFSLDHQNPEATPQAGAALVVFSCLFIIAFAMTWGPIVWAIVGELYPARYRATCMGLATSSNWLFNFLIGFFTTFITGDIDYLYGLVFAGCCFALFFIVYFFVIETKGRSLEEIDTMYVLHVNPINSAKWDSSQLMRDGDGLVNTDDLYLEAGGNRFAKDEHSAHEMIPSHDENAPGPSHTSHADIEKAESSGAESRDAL
Procedure: FIG. 7A illustrates sugar uptake kinetics by SR8D8. FIG. 7B illustrates sugar uptake kinetics by SR8D8 expressing AtSWEET1. FIG. 7C illustrates sugar uptake kinetics by SR8D8 expressing ScGal2. FIG. 7D illustrates sugar uptake kinetics by SR8D8 expressing AtSWEET7. FIG. 7E illustrates sugar uptake kinetics by SR8D8 expressing LST1_205437. Initial xylose uptake (20 s) was measured at 30° C. over a concentration range of 1 to 500 mM xylose. FIG. 7F illustrates sugar uptake kinetics by SR8D8. FIG. 7G illustrates sugar uptake kinetics by SR8D8 expressing AtSWEET1. FIG. 7H illustrates sugar uptake kinetics by SR8D8 expressing ScGal2. FIG. 7I illustrates sugar uptake kinetics by SR8D8 expressing AtSWEET7. FIG. 7J illustrates sugar uptake kinetics by SR8D8 expressing LST1_205437. Initial glucose uptake (5 s) was measured at 30° C. over a concentration range of 0.2 to 100 mM glucose. Curve fitting for Michaelis-Menten kinetics was applied to data of three independent measurements at each concentration.
A xylose fermenting S. cerevisiae yeast (SR8) with HXT1-7Δ, GAL2Δ deletions was used for transporter screening and characterization (SR8D8). SR8D8 was grown in YPE medium/plate (10 g/L yeast extract, 20 g/L peptone, and 5 g/L ethanol). […] Biomass was calculated from the OD600 measured using a Biomate 5 UV-visible spectrophotometer (Fisher, NY, USA). All growth rates were measured using a Bioscreen C plate reader system (Growth Curves USA, Piscataway, NJ, USA). […]
SR8D8 containing the respective plasmid was grown on selective YPE medium to an OD600 of 1-1.5, harvested by centrifugation, and washed twice in ice-cold uptake buffer (100 mM potassium phosphate, pH 6.5). […] Radioactivity was analyzed in a Beckman-Coulter LS6500 multi-purpose liquid scintillation counter (Beckman-Coulter, CA, USA).
Uptake was measured at sugar concentrations 0.2, 1, 5, 25, and 100 mM for glucose and 1, 5, 25, 66, 100, 200, and 500 mM for xylose. Inhibition of xylose uptake by glucose was measured at 25, 66, and 100 mM xylose with additional 25 and 100 mM unlabeled glucose.

[2] = biological target: T2, Saccharomyces cerevisiae ScGal2 (Gal2) transporter, SEQ ID NO:32 (Saccharomyces cerevisiae, UniProt P13181); experiment: Inhibition of xylose uptake by glucose, SR8D8 expressing ScGal2; type: cell-based; settings: in words
T2 construct: expressed in transfected cells; host or cells: S. cerevisiae SR8D8 (SR8 with HXT1-7 and GAL2 deleted), plasmid p42K-GPD1p-CYC1t
T2 sequence (P13181 1-574): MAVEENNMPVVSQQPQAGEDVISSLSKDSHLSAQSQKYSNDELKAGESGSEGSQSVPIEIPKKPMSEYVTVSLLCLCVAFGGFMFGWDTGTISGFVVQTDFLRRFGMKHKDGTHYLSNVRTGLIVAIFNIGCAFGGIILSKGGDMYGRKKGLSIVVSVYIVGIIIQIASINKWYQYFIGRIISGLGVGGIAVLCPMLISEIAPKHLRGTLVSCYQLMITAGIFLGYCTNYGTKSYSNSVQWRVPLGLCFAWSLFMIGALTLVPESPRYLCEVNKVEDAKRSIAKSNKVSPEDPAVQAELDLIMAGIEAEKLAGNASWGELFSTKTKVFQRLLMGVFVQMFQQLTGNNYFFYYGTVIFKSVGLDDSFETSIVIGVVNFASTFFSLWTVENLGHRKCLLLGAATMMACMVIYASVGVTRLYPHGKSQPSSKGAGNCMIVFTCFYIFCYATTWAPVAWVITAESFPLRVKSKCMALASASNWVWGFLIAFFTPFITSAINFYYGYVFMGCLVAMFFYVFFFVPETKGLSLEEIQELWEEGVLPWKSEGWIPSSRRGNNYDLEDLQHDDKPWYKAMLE
Procedure: Symbols: glucose (square), xylose (triangle up), DCW (circle), ethanol (triangle down), glycerol (diamond). […] Global curve fitting for Michaelis-Menten kinetics with competitive inhibition was applied to data of three independent measurements at each concentration.
SR8D8 containing the respective plasmid was grown on selective YPE medium to an OD600 of 1-1.5, harvested by centrifugation, and washed twice in ice-cold uptake buffer (100 mM potassium phosphate, pH 6.5). C14 labeled sugar uptake assay was done according to Boles and Oreb. Radioactivity was analyzed in a Beckman-Coulter LS6500 multi-purpose liquid scintillation counter (Beckman-Coulter, CA, USA).
Sugar solutions contained 0.135-0.608 μCi of D-[U-^14C]-glucose (290-300 mCi/mmol) or D-[1-^14C]-xylose (55 mCi/mmol) (PerkinElmer, MA, USA). Calculation of Km (Michaelis constant), Vmax (maximal initial uptake velocity), and K (inhibitor constant for competitive inhibition) was done by nonlinear regression analysis and global curve fitting in Prism 7 (GraphPad Software) with values of three independent measurements.

OC[C@H]1OC(O)[C@H](O)[C@@H](O)[C@@H]1O (stereo partly drawn) [Glucose]
Vmax (glucose) [1]: 47.0 ± 2.6 nmol/min/mg | inhibition of xylose transport by glucose ([2]; 25 mM glucose): complete xylose inhibition | inhibition of xylose transport by glucose ([2]; 25 mM or 100 mM glucose): completely inhibited
